Results as given in patent US6008356A, “Pharmaceutically available protoberberine salts derivatives, and protoberberine salts derivatives, and protoberberine derivatives and salts thereof” (priority 1998, dated 1999).
In brackets after ≈: the same amount, converted by molar mass. Where two headings read alike, the source gives them in different places.

Assays:
[1] = test system: C. albicans ATCC 28838; test: MIC; type: cell-based, Candida albicans
[2] = test system: C. albicans IFO 1385; test: MIC; type: cell-based, Candida albicans
[3] = test system: C. albicans KCTC 1940; test: MIC; type: cell-based, Candida albicans
[4] = test system: C. albicans ATCC 11651; test: MIC; type: cell-based, Candida albicans
[5] = test system: C. albicans OY 019; test: MIC; type: cell-based, Candida albicans
[6] = test system: C. glulliermendi; test: MIC; type: cell-based
[7] = test system: C. parapsilosis; test: MIC; type: cell-based; conditions: Lodderomyces parapsilosis
[8] = test system: C. albicans U.K.; test: MIC; type: cell-based; conditions: Candida albicans
[9] = test system: C. albicans OY 003; test: MIC; type: cell-based, Candida albicans
[10] = test system: C. glabrata; test: MIC; type: cell-based; conditions: Nakaseomyces glabratus
[11] = test system: C. albicans ATCC 10231; test: MIC; type: cell-based; conditions: Candida albicans, ATCC10231
[12] = test system: E. floccosum; test: MIC; type: cell-based, Epidermophyton floccosum
[13] = test system: C. krusei; test: MIC; type: cell-based; conditions: Pichia kudriavzevii
[14] = test system: Epidermophyton floccosum; test: Antifungal efficacy of creamy formulation against local fungal skin infection; type: in vivo, mouse (SKH/1, hairless, male); conditions: 0.5% cream, topical
Description: Specific pathogen free SKH/1 male mouse(Hairless) of which weight is 30-35 g and age is 5 weeks, was reared with sterilized water and feed for 12 night/day in the condition of 21-23° C. and of 50% relative humidity. Five mice were allocated by each group. After skin infection, each mouse was taken in separate cage. The strain of microorganism for infection(Epidermophyton floccosum) was cultivated on a flat medium of SDA(Sabouraud Dextrose Agar) for 5-7 days and after confirmation of macrocomidia, 3 ml of RPMI (Rosewell Park Memorial Institute) 1640 media per each flat medium was added thereto and then scraped well using loop to remove hyphae from media. The floating liquid was suspended briefly and then diluted with RPMI 1640 media to adjust the concentration of hyphae to 2×10^6 CFU/ml. Mouse was anesthetized and marked on back site(lumbosacral area) in a shape of circle of which diameter is 1.5 cm. Then, the inner part of marked skin was scratched with sand paper. The scratched part was covered with a filter paper to preserve inoculated microorganism for a long time and thereby stimulating the skin continuously. 0.2 ml of fungus solution of which concentration is adjusted as described above, was inoculated between the skin and filter paper. 5 Days after the inoculation, the filter paper was removed and the infection of skin was examined. The test formulations, 0.5% creamy formulations of the compounds Nos. 62 and 85, 1.0% creamy formulation of Terbinafine(Lamisile cream) and a placebo was applied on the infected areas in a same amount once a day for 5 days. The clinical evaluation on the change of the infected area in 5 days after the inoculation was performed and expressed numerically from 0 to 4. The daily change of the infected area was checked every day. The result of each group was compared with each other.
1: Mild erythema or small number of skin eruption
2: Well-demarcated erythema with scales or mild skin eruption of infected area
3: Wide area of marked skin eruption, scales, swelling or severe skin eruption with partial swelling and scales
4: The same as those of control, or severe skin eruption in entire lesion
The result was calculated as follows;
T: Average score of clinical evaluation in drug treated area
K: Average score of clinical evaluation in placebo control group
Moreover, the antifungal efficacies of the 0.5% creamy formulation of the compounds Nos. 29, 35, 60, 62, 63 and 85, and 1% creamy formulation of Terbinafme (Lamisil cream), which are measured by applying the above formulations on the skin infected with Epidermophyton floccosum of mouse which is the standard animal for the test of local fungal skin infection, i.e, Specific Pathogen Free SKH/1, are described in the following Table 4.

[15] = Candida albicans, ATCC28838, C. albicans ATCC 28838, read-out: MIC
[16] = Candida albicans, IFO1385, C. albicans IFO 1385, read-out: MIC
[17] = Candida albicans, KCTC1940, C. albicans KCTC 1940, read-out: MIC
[18] = Candida albicans, ATCC11651, C. albicans ATCC 11651, read-out: MIC
[19] = Candida albicans, OY019, C. albicans OY 019, read-out: MIC
[20] = Candida albicans, OY003, C. albicans OY 003, read-out: MIC

SMILES	MIC [1, 15]	MIC [2, 16]	MIC [3, 17]	MIC [4, 18]	MIC [5, 19]	MIC [9, 20]	MIC ([1]; Candida albicans, ATCC28838)	MIC ([2]; Candida albicans, IFO1385)	MIC ([3]; Candida albicans, KCTC1940)	MIC ([4]; Candida albicans, ATCC11651)	MIC ([5]; Candida albicans, OY019)	MIC [6]	MIC [7]	MIC [8]	MIC ([9]; Candida albicans, OY003)	MIC [10]	MIC [11]	MIC ([12]; Epidermophyton floccosum)	MIC [13]	Efficacy (%) 0 day later [14]	further results
C[C@@H]1[C@H](O)[C@@H](C)/C=C/C=C/C=C/C=C/C=C/C=C/C=C/[C@H](O[C@@H]2O[C@H](C)[C@@H](O)[C@H](N)[C@@H]2O)C[C@@H]2O[C@](O)(C[C@@H](O)C[C@@H](O)[C@H](O)CC[C@@H](O)C[C@@H](O)CC(=O)O[C@H]1C)C[C@H](O)[C@H]2C(=O)O [Amphotericin B, reference compound]	–	–	–	–	–	–	3.12 µg/mL (≈ 3.38 µM)	1.56 µg/mL (≈ 1.69 µM)	0.78 µg/mL (≈ 0.844 µM)	1.56 µg/mL (≈ 1.69 µM)	0.4 µg/mL (≈ 0.433 µM)	1.56 µg/mL (≈ 1.69 µM)	3.12 µg/mL (≈ 3.38 µM)	3.12 µg/mL (≈ 3.38 µM)	0.78 µg/mL (≈ 0.844 µM)	1.56 µg/mL (≈ 1.69 µM)	1.56 µg/mL (≈ 1.69 µM)	12.5 µg/mL (≈ 13.5 µM)	0.78 µg/mL (≈ 0.844 µM)	–	–
COc1ccc2c(Cc3ccc(C(C)(C)C)cc3)c3[n+](c(O)c2c1OC)CCc1cc2c(cc1-3)OCO2.[Cl-] [compound 64, 8-hydroxy-13-(4-t-butylbenzyl) berberine chloride]	–	–	–	–	–	–	–	–	–	–	–	–	–	–	–	–	–	–	–	–	MIC ([1]; C. albicans ATCC 28838): 3.125 µg/mL; MIC ([2]; C. albicans IFO 1385): 25 µg/mL; MIC ([3]; C. albicans KCTC 1940): 12.5 µg/mL; MIC ([4]; C. albicans ATCC 11651): 3.125 µg/mL; MIC ([5]; C. albicans OY 019): 0.4 µg/mL; MIC ([9]; C. albicans OY 003): 6.25 µg/mL; MIC ([12]; E. floccosum): > 100 µg/mL
Clc1ccc(COC(Cn2ccnc2)c2ccc(Cl)cc2Cl)c(Cl)c1 (stereo not shown) [Miconazole, reference compound]	–	–	–	–	–	–	0.78 µg/mL (≈ 1.87 µM)	3.12 µg/mL (≈ 7.51 µM)	1.56 µg/mL (≈ 3.75 µM)	3.12 µg/mL (≈ 7.51 µM)	1.56 µg/mL (≈ 3.75 µM)	3.12 µg/mL (≈ 7.51 µM)	3.12 µg/mL (≈ 7.51 µM)	> 100 µg/mL	1.56 µg/mL (≈ 3.75 µM)	> 100 µg/mL	6.25 µg/mL (≈ 15 µM)	6.25 µg/mL (≈ 15 µM)	3.12 µg/mL (≈ 7.51 µM)	–	–

Now from value to molecule, other results behind:

MIC [1, 15]	MIC [2, 16]	MIC [3, 17]	MIC [4, 18]	MIC [5, 19]	MIC [9, 20]	SMILES	MIC ([1]; Candida albicans, ATCC28838)	MIC ([2]; Candida albicans, IFO1385)	MIC ([3]; Candida albicans, KCTC1940)	MIC ([4]; Candida albicans, ATCC11651)	MIC ([5]; Candida albicans, OY019)	MIC [6]	MIC [7]	MIC [8]	MIC ([9]; Candida albicans, OY003)	MIC [10]	MIC [11]	MIC ([12]; Epidermophyton floccosum)	MIC [13]	Efficacy (%) 0 day later [14]	further results
0.78 µg/mL	3.12 µg/mL	1.56 µg/mL	0.78 µg/mL	1.56 µg/mL	0.78 µg/mL	COc1cc2c(cc1OC)-c1c(Cc3ccc(C(C)(C)C)cc3)c3ccc(OC)c(OC)c3c[n+]1CC2 [compound 77, 13-(4-t-butylbenzyl)palmatine iodide]	–	–	–	–	–	–	–	–	–	–	–	–	–	–	–
3.12 µg/mL	25 µg/mL	1.56 µg/mL	1.56 µg/mL	6.25 µg/mL	6.25 µg/mL	COc1cc(Cc2c3[n+](cc4c(OC)c(OC)ccc24)CCc2cc4c(cc2-3)OCO4)cc(OC)c1OC [compound 29, 13-(3,4,5-trimethoxybenzyl)berberine chloride]	–	–	–	–	–	–	–	–	–	–	–	–	–	0%	Efficacy (%) 1 day later [14]: 30.0%; Efficacy (%) 2 day later [14]: 33.4%; Efficacy (%) 3 day later [14]: 34.6%; Efficacy (%) 4 day later [14]: 48.0%; Efficacy (%) 5 day later [14]: 56.4%; Efficacy (%) 6 day later [14]: 63.0%; Efficacy (%) 7 day later [14]: 65.8%
3.12 µg/mL	25 µg/mL	6.25 µg/mL	6.25 µg/mL	12.5 µg/mL	6.25 µg/mL	C=Cc1ccc(Cc2c3[n+](cc4c(OC)c(OC)ccc24)CCc2cc4c(cc2-3)OCO4)cc1 [compound 60, 13-(4-vinylbenzyl)berberine chloride]	–	–	–	–	–	–	–	–	–	–	–	–	–	0%	Efficacy (%) 1 day later [14]: 20.0%; Efficacy (%) 2 day later [14]: 32.0%; Efficacy (%) 3 day later [14]: 36.0%; Efficacy (%) 4 day later [14]: 48.6%; Efficacy (%) 5 day later [14]: 51.5%; Efficacy (%) 6 day later [14]: 58.6%; Efficacy (%) 7 day later [14]: 60.5%
